# Measured values reported in patent US8952024B2, “Herbicidal pyrimidone derivatives” (E I du Pont de Nemours and Company, priority 2009, dated 2015).
# What was measured:
# Format in all cases: in vivo
# [1] = test system: bermudagrass (Cynodon dactylon); test: Test B pre-/postemergence plant response
# Method in brief: (§1)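 Greenhouse herbicide screen. Pre- and postemergence (1- to 4-leaf) spray of compound in solvent/surfactant mixture; loam–sand soil for pre, peat/vermiculite medium for post. Visual control rating 0–100 at 13 to 15 days after treatment.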
# [2] = test system: johnsongrass (Sorghum halepense); test: Test B pre-/postemergence plant response
# Method in brief: as §1
# [3] = test system: green foxtail (Setaria viridis); test: Test B pre-/postemergence plant response
# Method in brief: as §1
# [4] = test system: ragweed (common ragweed, Ambrosia elatior); test: Test B pre-/postemergence plant response
# Method in brief: as §1
# [5] = test system: wild oat (Avena fatua); test: Test B pre-/postemergence plant response
# Method in brief: as §1
# [6] = test system: morningglory (Ipomoea coccinea); test: Test B pre-/postemergence plant response
# Method in brief: as §1
# [7] = test system: kochia (Kochia scoparia); test: Test B pre-/postemergence plant response; details: Postemergence; for Plant response rating, Kochia: scale 0 (no effect) to 100 (complete control)
# Method in brief: as §1
# [8] = test system: giant foxtail (Setaria faberii); test: Test B pre-/postemergence plant response
# Method in brief: as §1
# [9] = test system: soybean (Glycine max); test: Test B pre-/postemergence plant response
# Method in brief: as §1
# [10] = test system: cocklebur (Xanthium strumarium); test: Test B pre-/postemergence plant response
# Method in brief: as §1
# [11] = test system: blackgrass (Alopecurus myosuroides); test: Test B pre-/postemergence plant response
# Method in brief: as §1
# [12] = test system: yellow nutsedge (Cyperus esculentus); test: Test B pre-/postemergence plant response
# Method in brief: as §1
# [13] = test system: wheat (Triticum aestivum); test: Test B pre-/postemergence plant response
# Method in brief: as §1
# [14] = test system: velvetleaf (Abutilon theophrasti); test: Test B pre-/postemergence plant response
# Method in brief: as §1
# [15] = test system: downy bromegrass (Bromus tectorum); test: Test B pre-/postemergence plant response
# Method in brief: as §1
# [16] = test system: chickweed (Stellaria media); test: Test B postemergence plant response; details: Postemergence
# Method in brief: (§2)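 Plants grown in peat/vermiculite medium were sprayed postemergence at 2–18 cm height (1- to 4-leaf stage). After 13–15 days in the greenhouse, response was rated visually against untreated controls on a 0–100 scale (0 no effect, 100 complete control).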
# [17] = test system: canarygrass (Phalaris minor); test: Test B postemergence plant response; details: Postemergence
# Method in brief: as §2
# [18] = test system: windgrass (Apera spica-venti); test: Test B postemergence plant response; details: Postemergence, scale 0 (no effect) to 100 (complete control)
# Method in brief: as §2
# [19] = 250 g ai/ha, Preemergence, 0 to 100 scale
# [20] = Postemergence, 31 g ai/ha, scale 0 to 100 (0 no effect, 100 complete control)
# [21] = Postemergence, 62 g ai/ha, scale 0 (no effect) to 100 (complete control), 13 to 15 days
# [22] = Postemergence, 125 g ai/ha, visual rating after 13 to 15 days, scale 0 (no effect) to 100 (complete control)
# [23] = Postemergence, 250 g ai/ha, scale 0 to 100
# [24] = Preemergence, 31 g ai/ha, scale 0 to 100 (0 no effect, 100 complete control)
# [25] = Preemergence, 62 g ai/ha, scale 0 to 100, 0 no effect, 100 complete control
# [26] = Preemergence, 125 g ai/ha, 0 to 100 scale
# [27] = 125 g ai/ha, visual rating after 13 to 15 days
# [28] = 31 g ai/ha, scale 0 to 100 (0 no effect, 100 complete control)
# [29] = 62 g ai/ha, scale 0 (no effect) to 100 (complete control), 13 to 15 days
# [30] = 125 g ai/ha, visual rating after 13 to 15 days, scale 0 (no effect) to 100 (complete control)
compound,measurement,setting,value
Cc1cc(F)ccc1-n1c(-c2ccccc2)ncc(C(=O)C2=C(O)CCCC2=O)c1=O [Compound 48],"Plant response rating, Bermudagrass",[1]; [19],100
same,"Plant response rating, Bermudagrass",[1]; [20],85
same,"Plant response rating, Bermudagrass",[1]; [21],95
same,"Plant response rating, Bermudagrass",[1]; [22],98
same,Bermudagrass plant response rating,[1]; [23],100
same,"Plant response rating, Bermudagrass",[1]; [24],100
same,"Plant response rating, Bermudagrass",[1]; [25],100
same,Bermudagrass plant response rating,[1]; [26],100
same,"Plant response rating, Johnsongrass",[2]; [19],98
same,"Plant response rating, Johnsongrass",[2]; [21],80
same,"Plant response rating, Johnsongrass",[2]; [22],80
same,Johnsongrass plant response rating,[2]; [23],95
same,"Plant response rating, Johnsongrass",[2]; [24],20
same,"Plant response rating, Johnsongrass",[2]; [25],45
same,Johnsongrass plant response rating,[2]; [26],90
same,"Plant response rating, Foxtail, Green",[3]; [19],98
same,"Plant response rating, Foxtail, Green",[3]; [20],85
same,"Plant response rating, Foxtail, Green",[3]; [21],95
same,"Plant response rating, Foxtail, Green",[3]; [22],95
same,"Foxtail, Green plant response rating",[3]; [23],95
same,"Plant response rating, Foxtail, Green",[3]; [24],60
same,"Plant response rating, Foxtail, Green",[3]; [25],60
same,"Foxtail, Green plant response rating",[3]; [26],98
same,"Plant response rating, Ragweed",[4]; [19],95
same,"Plant response rating, Ragweed",[4]; [21],85
same,"Plant response rating, Ragweed",[4]; [22],90
same,"Plant response rating, Ragweed",[4]; [24],65
same,Ragweed plant response rating,[4]; [26],90
same,"Plant response rating, Oat, Wild",[5]; [19],15
same,"Plant response rating, Oat, Wild",[5]; [21],50
same,"Plant response rating, Oat, Wild",[5]; [22],85
same,"Plant response rating, Oat, Wild",[5]; [24],0
same,"Oat, Wild plant response rating",[5]; [26],0
same,"Plant response rating, Morningglory",[6]; [19],100
same,"Plant response rating, Morningglory",[6]; [21],70
same,"Plant response rating, Morningglory",[6]; [22],80
same,"Plant response rating, Morningglory",[6]; [24],0
same,"Plant response rating, Morningglory",[6]; [25],100
same,Morningglory plant response rating,[6]; [26],100
same,"Plant response rating, Kochia","[7]; 62 g ai/ha, 13 to 15 days",98
same,"Plant response rating, Kochia",[7]; [27],100
same,Kochia plant response rating,"[7]; 250 g ai/ha, scale 0 to 100",100
same,"Plant response rating, Foxtail, Giant",[8]; [19],98
same,"Plant response rating, Foxtail, Giant",[8]; [20],85
same,"Plant response rating, Foxtail, Giant",[8]; [21],85
same,"Plant response rating, Foxtail, Giant",[8]; [22],95
same,"Foxtail, Giant plant response rating",[8]; [23],98
same,"Plant response rating, Foxtail, Giant",[8]; [24],20
same,"Plant response rating, Foxtail, Giant",[8]; [25],75
same,"Foxtail, Giant plant response rating",[8]; [26],85
same,"Plant response rating, Soybean",[9]; [19],20
same,"Plant response rating, Soybean",[9]; [21],95
same,"Plant response rating, Soybean",[9]; [22],98
same,"Plant response rating, Soybean",[9]; [24],0
same,Soybean plant response rating,[9]; [26],0
same,"Plant response rating, Cocklebur",[10]; [19],85
same,"Plant response rating, Cocklebur",[10]; [20],95
same,"Plant response rating, Cocklebur",[10]; [21],95
same,"Plant response rating, Cocklebur",[10]; [22],98
same,Cocklebur plant response rating,[10]; [23],98
same,"Plant response rating, Cocklebur",[10]; [25],0
same,Cocklebur plant response rating,[10]; [26],0
same,"Plant response rating, Blackgrass",[11]; [19],5
same,"Plant response rating, Blackgrass",[11]; [20],0
same,"Plant response rating, Blackgrass",[11]; [21],5
same,"Plant response rating, Blackgrass",[11]; [22],20
same,Blackgrass plant response rating,[11]; [23],30
same,"Plant response rating, Blackgrass",[11]; [24],0
same,"Plant response rating, Blackgrass",[11]; [25],0
same,Blackgrass plant response rating,[11]; [26],0
same,"Plant response rating, Nutsedge, Yellow",[12]; [19],90
same,"Plant response rating, Nutsedge, Yellow",[12]; [21],45
same,"Plant response rating, Nutsedge, Yellow",[12]; [22],60
same,"Plant response rating, Nutsedge, Yellow",[12]; [24],20
same,"Nutsedge, Yellow plant response rating",[12]; [26],85
same,"Plant response rating, Wheat",[13]; [19],0
same,"Plant response rating, Wheat",[13]; [21],0
same,"Plant response rating, Wheat",[13]; [22],10
same,"Plant response rating, Wheat",[13]; [24],0
same,Wheat plant response rating,[13]; [26],0
same,"Plant response rating, Velvetleaf",[14]; [19],100
same,"Plant response rating, Velvetleaf",[14]; [21],85
same,"Plant response rating, Velvetleaf",[14]; [22],98
same,"Plant response rating, Velvetleaf",[14]; [24],75
same,Velvetleaf plant response rating,[14]; [26],100
same,"Plant response rating, Bromegrass, Downy",[15]; [19],45
same,"Plant response rating, Bromegrass, Downy",[15]; [20],10
same,"Plant response rating, Bromegrass, Downy",[15]; [21],25
same,"Plant response rating, Bromegrass, Downy",[15]; [22],50
same,"Bromegrass, Downy plant response rating",[15]; [23],70
same,"Plant response rating, Bromegrass, Downy",[15]; [24],0
same,"Plant response rating, Bromegrass, Downy",[15]; [25],0
same,"Bromegrass, Downy plant response rating",[15]; [26],0
same,"Plant response rating, Chickweed",[16]; [28],85
same,"Plant response rating, Chickweed",[16]; [29],90
same,"Plant response rating, Chickweed",[16]; [30],95
same,Chickweed plant response rating,"[16]; 250 g ai/ha, scale 0 to 100",100
same,"Plant response rating, Canarygrass",[17]; [28],30
same,"Plant response rating, Canarygrass",[17]; [29],30
same,"Plant response rating, Canarygrass",[17]; [30],45
same,Canarygrass plant response rating,"[17]; 250 g ai/ha, scale 0 to 100",45
same,"Plant response rating, Windgrass","[18]; 62 g ai/ha, 13 to 15 days",80
same,"Plant response rating, Windgrass",[18]; [27],90
